Test results reported in patent US9353132B2, “Boron-based 4-hydroxytamoxifen and endoxifen prodrugs as treatment for breast cancer” (XAVIER UNIVERSITY OF LOUISIANA, priority 2012, dated 2016).

How the values were obtained:
[1] = test system: estrogen-dependent cell proliferation; conditions: cited from earlier work
MCF-7 cells [2] = experiment: Cell survival/growth inhibition assay in ER+ MCF-7 breast cancer cells; format: cell-based, human; conditions: for inhibition at 1 µM / inhibition at 0.1 µM: MCF7
Excerpt: MCF-7 is a human breast adenocarcinoma cell line commonly accepted in the art as useful for in vitro breast cancer studies because it has retained several ideal characteristics particular to mammary epithelium. These characteristics include the ability to process estrogen (in the form of estradiol) via estrogen receptors in the cell cytoplasm. This makes the MCF-7 cell line an estrogen receptor (ER) positive control cell line.
To test if the prodrugs inhibit breast cancer cell growth and proliferation, cell survival assays were conducted.

[3] = Kinetic stability of prodrug (conversion to 4-OHT) in MCF-7 cell culture; format: in vitro ADME, human; conditions: human, MCF-7 cell culture; 0 to 144 hours, regression of prodrug concentration relative to 4-OHT
Experimental: (§1) A kinetic study on the stability of the prodrugs was performed. In the study, the relative concentration of a prodrug to 4-OHT was determined at different time points that ranged from 0 hour to 144 hours (6 days).

T47D cells [4] = experiment: Cell survival/growth inhibition assay in ER+ T47D breast cancer cells; format: cell-based; conditions: for inhibition at 1 µM / inhibition at 0.1 µM: T47D; for IC50: dose-response, T47D cells
Excerpt: The T47D cell line is also an ER positive control cell line.
To test if the prodrugs can inhibit growth in another breast cancer cell line that also expresses the estrogen receptor, T47D cells were used.

MCF-7 cells [5] = experiment: Oxidative conversion of prodrug to 4-OHT in media after incubation with MCF-7 cells (HPLC-MS/MS); format: in vitro ADME, human; conditions: LC-MS/MS
Experimental: (§2) To determine if the actions of the prodrugs are by means of biotransformation into the compound 4-hydroxytamoxifen, we analyzed the concentrations of the prodrugs and 4-hydroxytamoxifen in the media containing breast cancer cells using an HPLC-MS/MS technique.
(§3) Using HPLC coupled to a linear trap mass spectrometer, the prodrugs and their active product, 4-OHT were separated, identified, and quantified.
(§4) The relative peak areas were measured at 30.4% for prodrug 3 and 69.6% for 4-OHT (FIG. 5 panel A).

T47D cells [6] = experiment: Oxidative conversion of prodrug to 4-OHT in media after incubation with T47D cells (HPLC-MS/MS); format: in vitro ADME; conditions: LC-MS/MS
Experimental: as §2, §3, §4

MCF-7 cell culture = experiment: Kinetic stability of prodrug (conversion to 4-OHT) in MCF-7 cell culture; format: in vitro ADME, human; conditions: 0 to 144 hours, regression of prodrug concentration relative to 4-OHT
Experimental: as §1

[7] = Homo sapiens, MCF7, dose-response, MCF-7 cells

| half-life [3] | Compound | IC50 (MCF-7 cells [2]; [7]) | inhibition at 1 µM (MCF-7 cells [2]; Homo sapiens, 10^−6 M) | inhibition at 0.1 µM (MCF-7 cells [2]; Homo sapiens, 10^−7 M) | inhibition at 1 µM (T47D cells [4]; Homo sapiens, 10^−6 M) | inhibition at 0.1 µM (T47D cells [4]; Homo sapiens, 10^−7 M) | IC50 (T47D cells [4]; Homo sapiens) | growth inhibition of T47D cells (T47D cells [4]; 10^−6 M) | further results |
| --- | --- | --- | --- | --- | --- | --- | --- | --- | --- |
| 89 h | CCC(=C(c1ccc(OCCN(C)C)cc1)c1ccc(B2OC(C)(C)C(C)(C)O2)cc1)c1ccccc1 [Prodrug 1, N,N-Dimethyl-2-(4-(2-phenyl-1-(4-(4,4,5,5-tetramethyl-1,3,2-dioxaborolan-2-yl)phenyl)but-1-en-1-yl)phenoxy)ethanamine] | 150 nM | 63% | 52% | 60% | 42% | 144 nM |  | IC50 relative to tamoxifen (MCF-7 cells [2]; cell line not given, values match MCF-7): about 5 times lower; IC50 (MCF-7 cells [2]; dose-response, MCF-7 cells, listed as Boron-4-OHT Prodrug (1)): 148 nM |
| 96 h | CCC(=C(c1ccc(OCCN(C)C)cc1)c1ccc(B(O)O)cc1)c1ccccc1 [Prodrug 3, (4-(1-(4-(2-(Dimethylamino)ethoxy)phenyl)-2-phenylbut-1-en-1-yl)phenyl)boronic acid] | 42 nM | 75% | 51% | 54% | 44% | 228 nM |  | relative peak area of remaining prodrug (MCF-7 cells [5]): 30.4%; % peak area of remaining prodrug (T47D cells [6]): 20.9% |

Further lines, the compound ahead of its results:

| Compound | half-life [3] | IC50 (MCF-7 cells [2]; [7]) | inhibition at 1 µM (MCF-7 cells [2]; Homo sapiens, 10^−6 M) | inhibition at 0.1 µM (MCF-7 cells [2]; Homo sapiens, 10^−7 M) | inhibition at 1 µM (T47D cells [4]; Homo sapiens, 10^−6 M) | inhibition at 0.1 µM (T47D cells [4]; Homo sapiens, 10^−7 M) | IC50 (T47D cells [4]; Homo sapiens) | growth inhibition of T47D cells (T47D cells [4]; 10^−6 M) | further results |
| --- | --- | --- | --- | --- | --- | --- | --- | --- | --- |
| 4-hydroxytamoxifen [Prodrug 4-OHT] |  |  |  |  |  |  |  |  | potency relative to tamoxifen in inhibiting estrogen-dependent cell proliferation [1]: 30- to 100 fold |
| CCC(=C(c1ccc(OCCN(C)C)cc1)c1ccc([B-](F)(F)F)cc1)c1ccccc1.[K+] [Prodrug 2, Potassium (4-(1-(4-(2-(dimethylamino)ethoxy)phenyl)-2-phenylbut-1-en-1-yl)phenyl)trifluoro boronate] |  |  |  |  |  |  |  | 50% | growth inhibition of MCF-7 cells (MCF-7 cells [2]; 10^−6 M): 76%; growth inhibition of MCF-7 cells (MCF-7 cells [2]; 10^−7 M): 59%; IC50 (MCF-7 cells [2]; dose-response, MCF-7 cells): 6.3 nM; IC50 (MCF-7 cells [2]; dose-response, MCF-7 cells, listed as Boron-4-OHT Prodrug (2)): 6.26 nM; % peak area of 4-OHT formed from prodrug (MCF-7 cells [5]): 81.6%; % peak area of 4-OHT formed from prodrug (transformed into 4-OHT) (T47D cells [6]): 86.3%; half-life of prodrug (conversion to 4-OHT) (MCF-7 cell culture): 84 h; growth inhibition of T47D cells (T47D cells [4]; 10^−7 M): 38%; IC50 (T47D cells [4]): 260 nM |
| CCC(=C(c1ccc(OCCNC)cc1)c1ccc(B(O)O)cc1)c1ccccc1 [Prodrug 11, (4-(1-(4-(2-(Methylamino)ethoxy)phenyl)-2-phenylbut-1-en-1-yl)phenyl)boronic acid] |  | 25.5 nM |  |  | 53% | 40% | 189 nM |  | anti-proliferative efficacy compared to tamoxifen (MCF-7 cells [2]; MCF-7 cells): greater anti-proliferative efficacy than tamoxifen |
| CC/C(=C(\c1ccccc1)c1ccc(OCCN(C)C)cc1)c1ccccc1 [Tamoxifen] |  |  | 52% | 18% | 46% | 39% |  | 48% |  |
